Laboratory results taken from publication PMC10321576, “Cyclic peptides target the aromatic cage of a PHD-finger reader domain to modulate epigenetic protein function” (Chemical Science, 2023).
Peptide text beside a SMILES is read from it.

Tests used:
KDM7B PHD = molecular target: T1, KDM7B PHD (Homo sapiens, UniProt Q9UPP1); experiment: BLI binding; set-up: key to BLI Screening, KDM7B PHD: (+) = binding; (-) = no binding; (NS) = non-specific
T1 construct: KDM7B 1-66; made in house
T1 sequence (Q9UPP1 1-66 isoform Q9UPP1-2): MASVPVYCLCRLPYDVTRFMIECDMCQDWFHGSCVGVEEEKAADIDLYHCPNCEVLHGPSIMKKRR
Description: (§1) Figure S2. BLI for KDM7 proteins with cyclic peptides.
(§2) BLI traces for b inding to KDM7 protein domains immobilised by C-terminal His -tag on Ni -NTA
(§3) biosensors, against cyclic peptides. Response trace for each peptide concentration is represented by
(§4) a different colour, with the fitted curves overlaid in black.
(§5) concentration plotted, with 2-fold dilutions thereafter. Dual domain = PHD+JmjC. […]
(§6) against KDM7 and other protein domains. t1/2 = half life (0.693 / Koff)
(§7) (1 picture or pasted object on this page, not shown here)

KDM7B Dual (PHD+JmjC) = molecular target: T2, KDM7B Dual (PHD+JmjC) (Homo sapiens, UniProt Q9UPP1); experiment: BLI binding; set-up: key to BLI Screening, KDM7B Dual: (+) = binding; (-) = no binding; (NS) = non-specific
T2 construct: Dual domain = PHD+JmjC; made in house
Description: as §1, §2, §3, §4, §5, §6, §7

KDM7B JmjC = molecular target: T3, KDM7B JmjC (Homo sapiens, UniProt Q9UPP1); experiment: BLI binding; set-up: key to BLI Screening, KDM7B JmjC: (+) = binding; (-) = no binding; (NS) = non-specific
T3 construct: made in house
Description: as §1, §2, §3, §4, §5, §6, §7

KDM7B PHD-finger = molecular target: T4, KDM7B PHD-finger (Homo sapiens, UniProt Q9UPP1); experiment: Protein NMR 1H-15N HSQC chemical shift perturbation; format: binding; conditions: Free PHD vs PHD+peptide
T4 construct: KDM7B 1-66; His-tag (C); made in house
T4 sequence (Q9UPP1 1-66 isoform Q9UPP1-2): T1 sequence (Q9UPP1 1-66 isoform Q9UPP1-2)
Description: To better elucidate OC9 interactions at a single residue level, we conducted protein NMR studies using isotopically labelled PHD-finger.[48] Comparison of ^1H–^15N HSQC spectra for isotopically labelled apo and OC9-bound protein (Fig. 4a), independently assigned using ^13C,^15N 3D experiments (Fig. S21, NMR ESI ^†), identified 24 out of 66 protein residues with significant (standard deviation, s > 1) chemical shift perturbation (CSP, Δδ) of their backbone amides (Fig. 4b).
(a) ^1H–^15N HSQC of KDM7B PHD-finger in the apo (black) or bound forms with OC9 (purple, 1 : 1) or H3_1–21K4me3 (green, 3 : 1). (b) ^1H and ^15N chemical shift changes for apo vs. + OC9 were combined and weighted to give chemical shift perturbation (CSP) (Δδ) values. Standard deviation (σ) of Δδ are indicated (>1 pink, >2 purple). (c) TALOS+ predicts similar secondary structure elements in apo and OC9-bound solution protein complexes (light grey) to those found in PDB ID 3KV4 (dark grey). […] (e) Shielded ^1H-NMR signals centred around −0.5 ppm belonging to the OC9 V10 γ-methyl groups are observed in some OC9–PHD complexes, but not in apo protein, or complexes with OC9 V10A and OC9 V10DV. The V10^OC9 γ-methyl signals have NOE interactions (black semi-circles) with the W29^PHD indole, which itself is shielded upon binding of OC9 (indicated by ΔδH values).

[1] = qualitative assessment of binding by BLI
[2] = His-tagged protein on Ni-NTA biosensors, 1:1 binding model

T2 sequence (Q9UPP1 37-483 limits assumed): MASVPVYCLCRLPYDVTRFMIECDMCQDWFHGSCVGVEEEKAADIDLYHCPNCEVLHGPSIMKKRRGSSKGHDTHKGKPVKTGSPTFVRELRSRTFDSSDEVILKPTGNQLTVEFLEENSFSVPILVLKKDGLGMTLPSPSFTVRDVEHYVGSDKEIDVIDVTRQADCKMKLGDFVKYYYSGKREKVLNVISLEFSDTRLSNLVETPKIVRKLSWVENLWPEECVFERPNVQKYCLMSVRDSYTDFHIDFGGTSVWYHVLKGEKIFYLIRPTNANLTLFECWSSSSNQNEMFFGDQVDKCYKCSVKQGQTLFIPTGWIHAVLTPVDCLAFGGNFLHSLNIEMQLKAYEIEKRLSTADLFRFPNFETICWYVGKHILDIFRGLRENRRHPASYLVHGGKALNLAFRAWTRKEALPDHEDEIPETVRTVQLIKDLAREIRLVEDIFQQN
T3 sequence (Q9UPP1 231-387 limits assumed): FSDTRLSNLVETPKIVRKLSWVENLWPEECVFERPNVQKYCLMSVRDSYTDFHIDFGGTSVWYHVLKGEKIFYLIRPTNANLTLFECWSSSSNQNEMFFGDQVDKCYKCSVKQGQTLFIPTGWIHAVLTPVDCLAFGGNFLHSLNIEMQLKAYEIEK

Compound: CC(C)C[C@@H]1NC(=O)[C@H](Cc2ccc(O)cc2)NC(=O)[C@H](Cc2ccc(O)cc2)NC(=O)CSC[C@@H](C(N)=O)NC(=O)[C@H]([C@@H](C)O)NC(=O)[C@H](CCCNC(=N)N)NC(=O)[C@H](Cc2ccccc2)NC(=O)[C@H](C(C)C)NC(=O)[C@H](CO)NC(=O)[C@@H]2CCCN2C(=O)[C@H](Cc2ccc(O)cc2)NC(=O)[C@@H]2CCCN2C(=O)[C@H](Cc2c[nH]cn2)NC(=O)[C@H]([C@@H](C)O)NC1=O [OC9] (HELM PEPTIDE1{[O=C(C[*:3])[*:2]].Y.Y.L.T.H.P.Y.P.S.V.F.R.T.C.[am]}$PEPTIDE1,PEPTIDE1,1:R3-15:R3$$$V2.0)
- koff (KDM7B PHD; 1:1 binding model): 0.00143 ± 1e-05 s⁻¹
- kon (KDM7B PHD; 1:1 binding model): 360000 ± 2000 M⁻¹ s⁻¹
- Kd (KDM7B PHD; His-tagged protein on Ni-NTA biosensors, 1:1 binding model, read-out: BLI KD, KDM7B PHD): 3.96 nM
- BLI Screening, KDM7B PHD (KDM7B PHD; [1]): +
- koff (KDM7B Dual (PHD+JmjC); 1:1 binding model): 0.00413 ± 3e-05 s⁻¹
- kon (KDM7B Dual (PHD+JmjC); 1:1 binding model): 691000 ± 7000 M⁻¹ s⁻¹
- Kd (KDM7B Dual (PHD+JmjC); [2]): 5.98 nM
- BLI Screening, KDM7B Dual (KDM7B Dual (PHD+JmjC); [1]): +
- Kd (KDM7B JmjC; 1:1 binding model, read-out: BLI pKD, KDM7B JmjC (converted)): > 1000 nM
- BLI KD, KDM7B JmjC (KDM7B JmjC; [2]): no affinity
- BLI Screening, KDM7B JmjC (KDM7B JmjC; [1]): -
- CSP Trp side chain (KDM7B PHD-finger; Trp side chain 1H-15N): 0.6107
- CSP Ala2 (KDM7B PHD-finger; residue Ala2 amide 1H-15N): 0.0035
- CSP Ala42 (KDM7B PHD-finger; residue Ala42 amide 1H-15N): 0.4429
- CSP Ala43 (KDM7B PHD-finger; residue Ala43 amide 1H-15N): 0.4556
- CSP Arg11 (KDM7B PHD-finger; residue Arg11 amide 1H-15N): 0.0082
- CSP Arg18 (KDM7B PHD-finger; residue Arg18 amide 1H-15N): 0.1460
- CSP Arg65 (KDM7B PHD-finger; residue Arg65 amide 1H-15N): 0.0120
- CSP Arg66 (KDM7B PHD-finger; residue Arg66 amide 1H-15N): 0.0057
- CSP Asn52 (KDM7B PHD-finger; residue Asn52 amide 1H-15N): 0.0450
- CSP Asp15 (KDM7B PHD-finger; residue Asp15 amide 1H-15N): 0.2640
- CSP Asp24 (KDM7B PHD-finger; residue Asp24 amide 1H-15N): 0.0779
- CSP Asp28 (KDM7B PHD-finger; residue Asp28 amide 1H-15N): 0.1748
- CSP Asp44 (KDM7B PHD-finger; residue Asp44 amide 1H-15N): 0.1350
- CSP Asp46 (KDM7B PHD-finger; residue Asp46 amide 1H-15N): 0.1724
- CSP Cys8 (KDM7B PHD-finger; residue Cys8 amide 1H-15N): 0.2344
- CSP Cys10 (KDM7B PHD-finger; residue Cys10 amide 1H-15N): 0.0550
- CSP Cys23 (KDM7B PHD-finger; residue Cys23 amide 1H-15N): 0.1441
- CSP Cys26 (KDM7B PHD-finger; residue Cys26 amide 1H-15N): 0.1542
- CSP Cys34 (KDM7B PHD-finger; residue Cys34 amide 1H-15N): 0.0336
- CSP Cys50 (KDM7B PHD-finger; residue Cys50 amide 1H-15N): 0.0486
- CSP Cys53 (KDM7B PHD-finger; residue Cys53 amide 1H-15N): 0.0638
- CSP Gln27 (KDM7B PHD-finger; residue Gln27 amide 1H-15N): 0.1502
- CSP Glu22 (KDM7B PHD-finger; residue Glu22 amide 1H-15N): 0.1442
- CSP Glu38 (KDM7B PHD-finger; residue Glu38 amide 1H-15N): 0.1925
- CSP Glu39 (KDM7B PHD-finger; residue Glu39 amide 1H-15N): 0.2336
- CSP Glu40 (KDM7B PHD-finger; residue Glu40 amide 1H-15N): 0.1019
- CSP Glu54 (KDM7B PHD-finger; residue Glu54 amide 1H-15N): 0.0569
- CSP Gly32 (KDM7B PHD-finger; residue Gly32 amide 1H-15N): 0.1798
- CSP Gly36 (KDM7B PHD-finger; residue Gly36 amide 1H-15N): 0.1053
- CSP Gly58 (KDM7B PHD-finger; residue Gly58 amide 1H-15N): 0.0436
- CSP His31 (KDM7B PHD-finger; residue His31 amide 1H-15N): 0.2040
- CSP His49 (KDM7B PHD-finger; residue His49 amide 1H-15N): 0.0826
- CSP His57 (KDM7B PHD-finger; residue His57 amide 1H-15N): 0.0542
- CSP Ile21 (KDM7B PHD-finger; residue Ile21 amide 1H-15N): 0.1523
- CSP Ile45 (KDM7B PHD-finger; residue Ile45 amide 1H-15N): 0.1111
- CSP Ile61 (KDM7B PHD-finger; residue Ile61 amide 1H-15N): 0.1500
- CSP Leu9 (KDM7B PHD-finger; residue Leu9 amide 1H-15N): 0.2010
- CSP Leu12 (KDM7B PHD-finger; residue Leu12 amide 1H-15N): 0.1857
- CSP Leu47 (KDM7B PHD-finger; residue Leu47 amide 1H-15N): 0.0914
- CSP Leu56 (KDM7B PHD-finger; residue Leu56 amide 1H-15N): 0.0558
- CSP Lys41 (KDM7B PHD-finger; residue Lys41 amide 1H-15N): 0.1054
- CSP Lys63 (KDM7B PHD-finger; residue Lys63 amide 1H-15N): 0.1309
- CSP Lys64 (KDM7B PHD-finger; residue Lys64 amide 1H-15N): 0.0270
- CSP Met20 (KDM7B PHD-finger; residue Met20 amide 1H-15N): 0.3618
- CSP Met25 (KDM7B PHD-finger; residue Met25 amide 1H-15N): 0.6758
- CSP Met62 (KDM7B PHD-finger; residue Met62 amide 1H-15N): 0.0955
- CSP Phe19 (KDM7B PHD-finger; residue Phe19 amide 1H-15N): 0.3281
- CSP Phe30 (KDM7B PHD-finger; residue Phe30 amide 1H-15N): 0.2483
- CSP Ser3 (KDM7B PHD-finger; residue Ser3 amide 1H-15N): 0.0045
- CSP Ser33 (KDM7B PHD-finger; residue Ser33 amide 1H-15N): 0.1228
- CSP Ser60 (KDM7B PHD-finger; residue Ser60 amide 1H-15N): 0.0469
- CSP Thr17 (KDM7B PHD-finger; residue Thr17 amide 1H-15N): 0.2705
- CSP Trp29 (KDM7B PHD-finger; residue Trp29 amide 1H-15N): 0.3903
- CSP Tyr7 (KDM7B PHD-finger; residue Tyr7 amide 1H-15N): 0.2658
- CSP Tyr14 (KDM7B PHD-finger; residue Tyr14 amide 1H-15N): 0.3173
- CSP Tyr48 (KDM7B PHD-finger; residue Tyr48 amide 1H-15N): 0.7926
- CSP Val4 (KDM7B PHD-finger; residue Val4 amide 1H-15N): 0.0230
- CSP Val6 (KDM7B PHD-finger; residue Val6 amide 1H-15N): 0.1610
- CSP Val16 (KDM7B PHD-finger; residue Val16 amide 1H-15N): 0.3656
- CSP Val35 (KDM7B PHD-finger; residue Val35 amide 1H-15N): 0.0666
- CSP Val37 (KDM7B PHD-finger; residue Val37 amide 1H-15N): 0.0847
- CSP Val55 (KDM7B PHD-finger; residue Val55 amide 1H-15N): 0.0250
